According to patent publication US11667919B2, “Targeting cancer-associated long non-coding RNAs” (University of Pittsburgh—Of the Commonwealth System of …, priority 2018, dated 2023):

Columns and labels:
Type in all cases: cell-based, human
[1] = tested on: MCF-7, BT-474, ZR-75-1 and A549 cells; test: MTT growth inhibition by BET inhibitors in EPIC1 knockdown or overexpressing cells; conditions: EPIC1 overexpression; MCF-7 and A549 cells
Protocol: For RNA interference, cells were transfected with 40 nM siRNA targeting EPIC1, or control siRNA using Lipofectamine RNAiMAX (Thermo Fisher, #13778150) per the manufacturer's instructions. For quantitative real-time PCR (qRT-PCR) analysis, total RNA was isolated 72 h later using an RNeasy Mini kit (Qiagen, #74104) according to the manufacturer's instructions; cDNAs were synthesized from 0.5 μg of total RNA using a High-Capacity cDNA Reverse Transcription Kit (Applied Biosystems, #4368813). qRT-PCR was performed with Power SYBR Green PCR Master Mix (Applied Biosystems, #4367659) on a QuantStudio 6 Flex Real-Time PCR System (Applied Biosystems). Relative gene expression was determined by ΔΔCt normalized to GAPDH.
Validation of IncRNA-drug predictive pairs in cell lines. MCF-7 cells (MCF-7/Vector and MCF-7/EPIC1) and A549 cells (A549/Vector and A549/EPIC1) stably expressing an empty vector and EPIC1 were established with retroviral particles using the previously published method. […]
The ectopic expression level of EPIC1 in stable cells was confirmed using PCR. […] The absorbance value was measured at 570 nm using an xMark Microplate Spectrophotometer (Bio-Rad) with a reference wavelength of 630 nm and the IC50 of JQ-1 and I-BET-762 on cells was calculated, respectively.

MCF-7 and ZR-75-1 cells = test: Cell cycle assay (PI staining, flow cytometry); conditions: LNA against EPIC1, MCF-7 cells
Protocol: For the cell cycle assay, cells were collected, rinsed with PBS, and fixed for a minimum of 2 hr by adding 70% ice-cold ethanol at −20° C. Cells were then sequentially washed once in PBS and BD Pharmingen stain buffer (BD Biosciences, #554656). Cell pellets were resuspended in 0.5 ml of BD Pharmingen PI/RNase staining buffer (BD Biosciences, #550825) and incubated for 15 min at room temperature (RT), and cells were immediately analyzed using an LSRFORTESSA X-20 flow cytometer (BD Biosciences). The data were analyzed with FlowJo software.

Myc targets = test: Myc target expression after knockdown (RNA-seq, qRT-PCR, western blot); conditions: LNA against EPIC1, MCF-7 cells
Protocol: For RNA interference, cells were transfected with 40 nM siRNA targeting EPIC1, Myc, or a control siRNA using Lipofectamine RNAiMAX (ThermoFisher, #13778150) per the manufacturer's instructions. Total RNA was isolated 72 hr later for real-time PCR analysis. The siRNA sequences are SEQ ID NOS: 4-6.
For LNA transfection, cells were transfected with 40 nM LNA oligos targeting EPIC1, and a scramble control using Lipofectamine™ RNAiMAX per the guidelines. The LNA oligos (e.g., SEQ ID NO: 9) were designed and synthesized from Exiqon.
RNA Isolation and Quantitative Real-Time PCR (qRT-PCR) Assays: Total RNA was isolated from cultured cells using an RNeasy Mini kit (Qiagen, #74104) according to the manufacturer's instructions. cDNAs were synthesized from […] of total RNA using a High-Capacity cDNA Reverse Transcription Kit (Applied Biosystems, #4368813). Real-time PCR was performed with Power SYBR Green PCR Master Mix (Applied Biosystems, #4367659) on a QuantStudio 6 Flex Real-Time PCR System (Applied Biosystems). Relative gene expression was determined by DDCt normalized to GAPDH.
Cell lysates were also treated with equal volume of 2× SDS sample buffer and resolved by SDS-PAGE under denaturing conditions and transferred onto PVDF membranes (Bio-Rad, #162-0177). […]

| Compound | resistance to BET inhibitor promoted by EPIC1 [1] | cell-cycle analysis (MCF-7 and ZR-75-1 cells) | expression of Myc target genes (Myc targets) |
| --- | --- | --- | --- |
| CCNC(=O)C[C@@H]1N=C(c2ccc(Cl)cc2)c2cc(OC)ccc2-n2c(C)nnc21 [iBET762, I-BET-762 (iBET762)] | strongly promotes iBET762 and JQ-1 resistance |  |  |
| LNA: LNA oligo targeting EPIC1, e.g. SEQ ID NO: 9 (5′-GTCGACTCCTGCCGGA-3′), designed and synthesized from Exiqon (LNA oligo from Exiqon, LNA positions not given here) |  | significantly caused Gi arrest of MCF-7 cells | curtailed the expression of Myc target genes |
| (+)-JQ1 [JQ-1] | strongly promotes iBET762 and JQ-1 resistance |  |  |
